Results from US20250320206A1, “STAT6 DEGRADERS” (Gilead Sciences, Inc., priority 2024, published 2025).

Assays:
STAT6 = molecular target: T1, STAT6 (Homo sapiens, UniProt P42226); assay: Stat6 Degrader Assay (HiBiT based, HeLa LgBiT clone 4.14); assay type: cell-based; settings: HeLa LgBiT clone 4.14 HiBiT-STAT6, 4-24 h incubation; values given for compounds with >80% Emax; geometric mean; read-out: STAT6 degradation DC50
T1 construct: These cells express endogenous STAT6; host or cells: HeLa LgBiT clone 4.14
T1 sequence (P42226 1-847): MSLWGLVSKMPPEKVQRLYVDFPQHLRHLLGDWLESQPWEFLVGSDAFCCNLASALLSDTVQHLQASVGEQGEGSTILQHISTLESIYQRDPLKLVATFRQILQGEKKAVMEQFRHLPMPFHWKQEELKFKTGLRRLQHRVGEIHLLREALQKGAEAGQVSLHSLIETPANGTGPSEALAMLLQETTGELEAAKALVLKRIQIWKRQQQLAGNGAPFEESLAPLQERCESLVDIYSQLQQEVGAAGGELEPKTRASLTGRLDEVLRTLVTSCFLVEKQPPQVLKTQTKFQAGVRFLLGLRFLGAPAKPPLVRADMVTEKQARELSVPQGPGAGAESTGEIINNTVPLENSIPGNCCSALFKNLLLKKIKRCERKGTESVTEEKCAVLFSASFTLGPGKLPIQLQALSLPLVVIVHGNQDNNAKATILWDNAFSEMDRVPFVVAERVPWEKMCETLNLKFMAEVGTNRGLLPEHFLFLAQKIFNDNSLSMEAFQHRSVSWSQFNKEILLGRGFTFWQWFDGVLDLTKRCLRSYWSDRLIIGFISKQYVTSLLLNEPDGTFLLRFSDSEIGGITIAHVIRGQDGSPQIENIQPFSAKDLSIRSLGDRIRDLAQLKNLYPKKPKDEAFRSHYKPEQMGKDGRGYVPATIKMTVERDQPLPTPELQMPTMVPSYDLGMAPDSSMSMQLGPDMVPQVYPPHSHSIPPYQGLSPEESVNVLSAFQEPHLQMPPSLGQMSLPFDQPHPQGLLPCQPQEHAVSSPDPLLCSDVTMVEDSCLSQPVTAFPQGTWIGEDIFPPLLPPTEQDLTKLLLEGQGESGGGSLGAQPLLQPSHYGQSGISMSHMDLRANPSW
Method in brief: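 Luminescence from HiBiT-STAT6 complementing stably expressed LgBiT in HeLa clone 4.14 reports remaining STAT6 protein. Cells (5000/well) exposed to compound for 4-24 h at 37° C; read 0.5 h after Nano-Glo addition. 100% degradation window set with 50 μM terfenadine; percent degradation plotted against concentration.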

[1] = system: Eotaxin-3 release in human whole blood stimulated with IL-4; assay: Human Whole Blood Eotaxin-3 Assay (IL-4 stimulated eotaxin-3 release); assay type: cell-based; settings: IL-4 stimulation, 48 h, values given for compounds with >80% Emax, geometric mean
Method in brief: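 Eotaxin-3 (CCL26) release measured by MSD kit in plasma supernatant after 48 h IL-4 stimulation ([…]) of human whole blood. Compounds added in triplicate 4-fold dilutions 2 h before stimulation; 0.5% DMSO final, 37° C, 5% CO2.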

DC50 (STAT6) | EC50 [1] | SMILES
2 nM | 5.7 nM | CNc1cc(=O)n(-c2ccnc3c2cc(CN2CCC(c4c(F)cc(C(=O)N5CCC(CN6CCN(Cc7ccc8c(c7)n(C)c(=O)n8[C@H]7CCC(=O)NC7=O)CC6)CC5)cc4F)CC2)n3C)cc1F (single isomer, unassigned) [Example 3u27]
2.9 nM | 24.3 nM | CNc1cc(=O)n(-c2ccnc3c2cc(CN2CCC(c4c(F)cc(C(=O)N5CCC(CN6CCN(Cc7ccc8c(c7)n(C)c(=O)n8[C@@H]7CCC(=O)NC7=O)CC6)CC5)cc4F)CC2)n3C)cc1F (single isomer, unassigned) [Example 3u28]
2.2 nM | 1.6 nM | CNc1ccn(-c2ccnc3c2cc(CN2CCC(c4c(F)cc(C(=O)N5CCC(CN6CCN(Cc7ccc8c(c7)n(C)c(=O)n8[C@H]7CCC(=O)NC7=O)CC6)CC5)cc4F)CC2)n3C)c(=O)c1 (single isomer, unassigned) [Example 3u30]
2.4 nM | 2 nM | CNc1ccn(-c2ccnc3c2cc(CN2CCC(c4c(F)cc(C(=O)N5CCC(CN6CCN(Cc7ccc8c(c7)n(C)c(=O)n8[C@@H]7CCC(=O)NC7=O)CC6)CC5)cc4F)CC2)n3C)c(=O)c1 (single isomer, unassigned) [Example 3u31]
0.2 nM | 0.3 nM | CNc1ccn(-c2ccnc3c2cc([C@H](C)N2CC=C(c4c(C)cc(C(=O)N5CCC(CN6CCN(Cc7ccc8c(c7)n(C)c(=O)n8[C@H]7CCC(=O)NC7=O)C[C@@H]6C)CC5)cc4F)CC2)n3C)c(=O)c1 (single isomer, unassigned) [Example 3u33]
0.5 nM | 1.7 nM | CNc1cc(=O)n(-c2ccnc3c2cc([C@H](C)N2CCC(c4ccc(C(=O)N5CCC(CN6CCN(Cc7ccc8c(c7)C7(CC7)C(=O)N8[C@H]7CCC(=O)NC7=O)C[C@@H]6C)CC5)cc4)CC2)n3C)cc1F (single isomer, unassigned) [Example 3u37]
1.3 nM | 1.5 nM | CNc1cc(=O)n(-c2ccnc3c2cc([C@H](C)N2CCC(c4ccc(C(=O)N5CCC(CN6CCN(Cc7ccc8c(c7)C7(CC7)C(=O)N8[C@@H]7CCC(=O)NC7=O)C[C@@H]6C)CC5)cc4)CC2)n3C)cc1F (single isomer, unassigned) [Example 3u38]
8.5 nM | 9.1 nM | CNc1ccn(-c2ccnc3c2cc(CN2CCC(c4c(F)cc(C(=O)N5CCC(CN6CCN(Cc7cc8c(cc7F)N([C@H]7CCC(=O)NC7=O)C(=O)C87CC7)CC6)CC5)cc4F)CC2)n3C)c(=O)c1 (single isomer, unassigned) [Example 3u43]
10.2 nM | 10.1 nM | CNc1ccn(-c2ccnc3c2cc(CN2CCC(c4c(F)cc(C(=O)N5CCC(CN6CCN(Cc7cc8c(cc7F)N([C@@H]7CCC(=O)NC7=O)C(=O)C87CC7)CC6)CC5)cc4F)CC2)n3C)c(=O)c1 (single isomer, unassigned) [Example 3u44]
5.8 nM | 10.1 nM | CNc1ccn(-c2ccnc3c2cc(CN2CC=C(c4c(F)cc(C(=O)N5CCC(CN6CCN(Cc7ccc8c(c7)C(C)(C)C(=O)N8[C@H]7CCC(=O)NC7=O)C[C@@H]6C)CC5)cc4F)CC2)n3C)c(=O)c1 (single isomer, unassigned) [Example 3u46]
0.8 nM | 8 nM | CNc1ccn(-c2ccnc3c2cc(CN2CC=C(c4c(F)cc(C(=O)N5CCC(CN6CCN(Cc7ccc8c(c7)C(C)(C)C(=O)N8[C@@H]7CCC(=O)NC7=O)C[C@@H]6C)CC5)cc4F)CC2)n3C)c(=O)c1 (single isomer, unassigned) [Example 3u47]
1.7 nM | 12.9 nM | CNc1cc(=O)n(-c2ccnc3c2cc(CN2CCC(c4c(F)cc(C(=O)N5CCC(CN6CCN(Cc7ccc8c(c7)C(C)(C)C(=O)N8[C@H]7CCC(=O)NC7=O)C[C@@H]6C)CC5)cc4F)CC2)n3C)cc1F (single isomer, unassigned) [Example 3u49]
0.9 nM | 30.2 nM | CNc1cc(=O)n(-c2ccnc3c2cc(CN2CCC(c4c(F)cc(C(=O)N5CCC(CN6CCN(Cc7ccc8c(c7)C(C)(C)C(=O)N8[C@@H]7CCC(=O)NC7=O)C[C@@H]6C)CC5)cc4F)CC2)n3C)cc1F (single isomer, unassigned) [Example 3u50]
4.3 nM | 1.1 nM | CNc1cc(=O)n(-c2ccnc3c2cc([C@H](C)N2CC=C(c4c(F)cc(C(=O)N5CCC(CN6CCN(Cc7ccc8c(c7)n(C)c(=O)n8[C@H]7CCC(=O)NC7=O)CC6)CC5)cc4F)CC2)n3C)cc1F (single isomer, unassigned) [Example 3u52]
8.7 nM | 1.1 nM | CNc1cc(=O)n(-c2ccnc3c2cc([C@H](C)N2CC=C(c4c(F)cc(C(=O)N5CCC(CN6CCN(Cc7ccc8c(c7)n(C)c(=O)n8[C@@H]7CCC(=O)NC7=O)CC6)CC5)cc4F)CC2)n3C)cc1F (single isomer, unassigned) [Example 3u53]
7.6 nM | 3.1 nM | CNc1cc(=O)n(-c2ccnc3c2cc(CN2CC=C(c4c(F)cc(C(=O)N5CCC(CN6CCN(Cc7ccc8c(c7)n(C)c(=O)n8[C@@H]7CCC(=O)NC7=O)C[C@@H]6C)CC5)cc4F)CC2)n3C)cc1F (single isomer, unassigned) [Example 3u55]
8.7 nM | 3.5 nM | CNc1cc(=O)n(-c2ccnc3c2cc(CN2CC=C(c4c(F)cc(C(=O)N5CCC(CN6CCN(Cc7ccc8c(c7)n(C)c(=O)n8[C@H]7CCC(=O)NC7=O)C[C@@H]6C)CC5)cc4F)CC2)n3C)cc1F (single isomer, unassigned) [Example 3u56]
7.6 nM | 12.6 nM | CNc1cc(=O)n(-c2ccnc3c2cc(CN2CCC(c4c(F)cc(C(=O)N5CCC(CN6CCN(Cc7ccc8c(c7)C(C)(C)C(=O)N8[C@H]7CCC(=O)NC7=O)CC6)CC5)cc4F)CC2)n3C)cc1F (single isomer, unassigned) [Example 3u58]
11.4 nM | 25.8 nM | CNc1cc(=O)n(-c2ccnc3c2cc(CN2CCC(c4c(F)cc(C(=O)N5CCC(CN6CCN(Cc7ccc8c(c7)C(C)(C)C(=O)N8[C@@H]7CCC(=O)NC7=O)CC6)CC5)cc4F)CC2)n3C)cc1F (single isomer, unassigned) [Example 3u59]
1.9 nM | 1.2 nM | CNc1cc(=O)n(-c2ccnc3c2cc(CN2CCC(c4c(F)cc(C(=O)N5CCC(CN6CCN(Cc7ccc8c(c7)n(C)c(=O)n8[C@H]7CCC(=O)NC7=O)C[C@@H]6C)CC5)cc4F)CC2)n3C)cc1F (single isomer, unassigned) [Example 3u61]
1.2 nM | 1.2 nM | CNc1cc(=O)n(-c2ccnc3c2cc(CN2CCC(c4c(F)cc(C(=O)N5CCC(CN6CCN(Cc7ccc8c(c7)n(C)c(=O)n8[C@@H]7CCC(=O)NC7=O)C[C@@H]6C)CC5)cc4F)CC2)n3C)cc1F (single isomer, unassigned) [Example 3u62]
7.3 nM | 50.3 nM | CNc1cc(=O)n(-c2ccnc3c2cc([C@H](C)N2CC=C(c4c(C)cc(C(=O)N5CCC(CN6CCN(c7ccc8c(c7)C7(CC7)C(=O)N8[C@@H]7CCC(=O)NC7=O)C[C@@H]6C)CC5)cc4F)CC2)n3C)cc1F (single isomer, unassigned) [Example 3u64]
1.4 nM | 5.8 nM | CNc1cc(=O)n(-c2ccnc3c2cc([C@H](C)N2CC=C(c4c(C)cc(C(=O)N5CCC(CN6CCN(Cc7ccc8c(c7)C7(CC7)C(=O)N8[C@H]7CCC(=O)NC7=O)CC6)CC5)cc4F)CC2)n3C)cc1F (single isomer, unassigned) [Example 3u67]
1 nM | 7.8 nM | CNc1cc(=O)n(-c2ccnc3c2cc([C@H](C)N2CC=C(c4c(C)cc(C(=O)N5CCC(CN6CCN(Cc7ccc8c(c7)C7(CC7)C(=O)N8[C@@H]7CCC(=O)NC7=O)CC6)CC5)cc4F)CC2)n3C)cc1F (single isomer, unassigned) [Example 3u68]
4.5 nM | 1.9 nM | CNc1ccn(-c2ccnc3c2cc(CN2CC=C(c4c(F)cc(C(=O)N5CCC(CN6CCN(Cc7ccc8c(c7)n(C7CC7)c(=O)n8[C@H]7CCC(=O)NC7=O)C[C@@H]6C)CC5)cc4F)CC2)n3C)c(=O)c1 (single isomer, unassigned) [Example 3u72]
6.8 nM | 2.4 nM | CNc1ccn(-c2ccnc3c2cc(CN2CC=C(c4c(F)cc(C(=O)N5CCC(CN6CCN(Cc7ccc8c(c7)n(C7CC7)c(=O)n8[C@@H]7CCC(=O)NC7=O)C[C@@H]6C)CC5)cc4F)CC2)n3C)c(=O)c1 (single isomer, unassigned) [Example 3u73]
